The values below come from paper PMC7764826, “Flavonol Glycosides: In Vitro Inhibition of DPPIV, Aldose Reductase and Combating Oxidative Stress are Potential Mechanisms for Mediating the Antidiabetic Activity of Cleome droserifolia” (Molecules, 2020).

Series [1] has as its target T1, Dipeptidyl peptidase IV (DPPIV) (Homo sapiens, UniProt P27487).
T1 construct: purchased Abnova
Briefly: DPPIV Inhibitor Screening Kit (fluorescence). The settings on record: in vitro, mean ± SEM of two replicates; read-out: DPPIV inhibition IC50 (converted). Type of series: biochemical. An excerpt: The DPPIV Inhibitor Screening Kit (Abnova, Taipei, Taiwan) was used in accordance to the manufacturer׳s protocol.

Series [2] is described as follows: DPPH radical scavenging assay. The settings on record: 30 min, room temperature, 517 nm. The protocol: The free radical scavenging capacity of the parent extract of C. droserifolia together with the isolated compounds was estimated using 2,2-diphenyl-1-picrylhydrazil (DPPH) as described previously. In brief, 240 µL of 0.004% DPPH in methanol was added to 8 µL of the parent extract and the isolated compounds at different concentrations: (2, 4, 12, 16 µg/mL) and (0.5, 1, 3, 4 µg/mL), respectively. The reaction mixture was mixed and incubated in dark for 30 min at room temperature. The absorbance was then measured at 517 nm against blank that was done using water instead of the plant extract. Ascorbic acid was used as the antioxidant standard and the IC50 value for samples and standard was determined.
Background: Loss of DPPH colour is used to gauge radical scavenging.

Another series deals with T2, aldose reductase (Homo sapiens, UniProt P15121).
T2 construct: purchased Biovision
Kind of series: Aldose Reductase Inhibitor Screening Kit (NADPH absorbance at 340 nm). It counts as biochemical. Particulars: in vitro; for IC50: mean ± SEM of two replicates, read-out: Aldose reductase inhibition IC50 (converted). As to the method: Determination of the aldose reductase inhibitory effectiveness of the investigated samples was performed kinetically using the Aldose Reductase Inhibitor Screening Kit (Biovision, Milpitas, CA, USA), according to the manufacturer׳s protocol. The decrease in the absorption of NADPH at 340 nm was measured in a mixture containing NADPH, the enzyme and its substrate, DL-glyceraldeyde in addition to test samples [31]. […] A 90 μL of freshly prepared Aldose Reductase Solution was then added and the plate was incubated protected from light at 37 °C for 15–20 min. After incubation, 40 μL enzyme substrate in assay buffer was added and the absorbance was measured at 340 nm kinetically for 60–90 min at 37 °C. A background control free from the enzyme was run and subtracted from the readings. The IC50 was calculated and presented for the samples and the standard.

The nature of series [3]: Ferric reducing antioxidant power (FRAP) assay. The settings on record: expressed in µM FeCl2; isolated compounds at 200 µg/mL. As to the method:
The antioxidant potential of the extract and the isolated compounds was assessed according to the assay originally designed by Benzie and Strain (1996) using the DetectX® Ferric Reducing Antioxidant Power (FRAP™) Detection Kit by Arbor assays, Ann Arbor, USA. In the provided plate, 75 µL of the prepared FRAP Color Solution was mixed with 20 µL of either the aqueous extract (400 µg/mL), the isolated compounds (200 µg/mL), different concentrations of the standard ferrous chloride or ascorbic acid positive control. The mixture was incubated for 30 min at room temperature and the produced blue colored product was read at 560 nm. The FRAP values were calculated and expressed in µM FeCl2.

The test system of the next series is colon (HCT116) carcinoma. Particulars: cited from earlier work.
Series [4] deals with cultured skeletal muscle cells and adipocytes. Details: method as in PMID 21890334. The settings on record: in vitro; cited from earlier work.
The subject of another series is liver (HepG2) carcinoma. The settings on record: cited from earlier work.
The target of series [5] is T3, α-amylase from porcine pancreas (Sus scrofa, UniProt P00690).
T3 construct: purchased Sigma Aldrich
T3 sequence (P00690 16-511): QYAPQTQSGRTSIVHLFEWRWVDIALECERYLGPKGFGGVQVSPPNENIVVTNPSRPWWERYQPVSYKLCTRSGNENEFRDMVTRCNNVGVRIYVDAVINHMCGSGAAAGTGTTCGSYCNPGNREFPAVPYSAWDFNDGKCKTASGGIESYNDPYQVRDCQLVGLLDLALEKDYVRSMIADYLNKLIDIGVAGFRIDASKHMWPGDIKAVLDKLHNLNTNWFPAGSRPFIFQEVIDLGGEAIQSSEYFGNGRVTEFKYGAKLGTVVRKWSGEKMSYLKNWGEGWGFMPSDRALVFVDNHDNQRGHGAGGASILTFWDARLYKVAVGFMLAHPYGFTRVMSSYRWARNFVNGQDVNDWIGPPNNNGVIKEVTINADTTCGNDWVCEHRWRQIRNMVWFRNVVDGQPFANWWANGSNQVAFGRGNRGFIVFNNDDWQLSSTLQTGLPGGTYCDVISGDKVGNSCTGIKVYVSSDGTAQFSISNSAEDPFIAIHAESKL
Kind of series: α-amylase inhibition assay (CNPG3 substrate, kinetic). Particulars: in vitro, pH 6.9, 37 °C. Type of series: biochemical. As to the method: (§1) Alpha-glucosidase enzyme from Saccharomyces cerevisiae, α-amylase from porcine pancreas and 2-chloro-4-nitrophenyl-α-D-maltotrioside (CNPG3) were purchased from Sigma Aldrich. All other chemicals were purchased from UFC Biotechnology. A microplate reader (Anthos Zenyth-200RT, Cambridge, UK) was used for the spectrophotometric measurements. A Bruker NMR Spectrometer (Bruker, Yokohama, Japan) used for ^1H-NMR (400 MHZ) and ^13C-NMR (100 MHz) analysis. Spectra were recorded in CD3OD or DMSO-d6 using tetramethylsilane (Sigma-Aldrich, St. Louis, MO, USA) as an internal standard, and chemical shift values were expressed in δ ppm.
A pre-incubation mixture was prepared which contained 40 mM phosphate buffer (pH 6.9) together with different concentrations (10, 50, 100, 200 µg/mL) and (5, 20, 50, 100 µg/mL) for the parent extract and the isolated compounds, respectively. […] Then, 2-chloro-4-nitrophenyl maltotrioside (CNPG3) substrate was added where the final concentration was 0.9 µmole/mL. […] A control which was devoid of the test samples was also run in parallel.

A further series concerns breast (MCF7) carcinoma. Particulars: cited from earlier work.
The target in series [6] is Alpha-glucosidase enzyme from Saccharomyces cerevisiae. Kind of series: α-glucosidase inhibition assay (PNP-G substrate). The settings on record: in vitro, pH 6.9, 37 °C. Type of series: biochemical. The protocol:
as §1
The tested samples were added to a reaction mixture in a 96-well microplate containing 20 µL of the phosphate buffer and 20 µL of 5 mM p-nitrophenyl α -D-glucopyranoside (PNP-G) in the buffer. […] The IC50 for test compounds as well as the standard was calculated and presented.

Structures are written as SMILES.

T1 sequence (P27487 whole entry, species assumed): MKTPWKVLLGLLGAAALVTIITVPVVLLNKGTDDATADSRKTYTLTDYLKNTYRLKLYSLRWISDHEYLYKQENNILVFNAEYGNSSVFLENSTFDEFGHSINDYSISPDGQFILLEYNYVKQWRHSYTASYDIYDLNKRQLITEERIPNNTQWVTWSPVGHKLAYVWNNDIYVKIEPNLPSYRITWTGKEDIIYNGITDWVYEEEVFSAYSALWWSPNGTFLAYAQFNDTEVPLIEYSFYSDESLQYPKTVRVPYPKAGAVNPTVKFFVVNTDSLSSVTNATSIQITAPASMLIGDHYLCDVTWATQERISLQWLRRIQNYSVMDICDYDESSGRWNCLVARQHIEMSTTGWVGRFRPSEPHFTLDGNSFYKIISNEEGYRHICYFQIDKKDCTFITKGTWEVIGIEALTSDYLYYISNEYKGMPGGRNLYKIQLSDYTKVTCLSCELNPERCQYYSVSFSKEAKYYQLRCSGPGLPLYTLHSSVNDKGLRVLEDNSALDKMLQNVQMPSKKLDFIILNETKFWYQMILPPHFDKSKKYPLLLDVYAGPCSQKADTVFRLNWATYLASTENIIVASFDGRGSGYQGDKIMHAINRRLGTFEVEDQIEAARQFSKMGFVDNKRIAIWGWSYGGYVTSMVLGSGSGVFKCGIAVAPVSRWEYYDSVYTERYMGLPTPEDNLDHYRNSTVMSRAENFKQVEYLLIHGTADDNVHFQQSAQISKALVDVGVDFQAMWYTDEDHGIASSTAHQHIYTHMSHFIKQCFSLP

As to `C[C@@H]1O[C@@H](Oc2cc(O)c3c(=O)c(O[C@@H]4O[C@H](CO)[C@@H](O)[C@H](O)[C@H]4O)c(-c4ccc(O)c(O)c4)oc3c2)[C@H](O)[C@H](O)[C@H]1O` [Compound 1, quercetin-3-O-β-D-glucosyl-7-O-α-rhamnoside], the results for the half-inhibitory concentration (IC50) (in [1]; on aldose reductase) were 0.318 µM and 50 µM, respectively. In series [2], the “DPPH radical scavenging IC50” value amounted to 5.67 ± 0.09 mg/L. The FRAP value in series [3] was determined as 3106 ± 52.2 µM.

As for `COc1cc(-c2oc3cc(O[C@@H]4O[C@H](CO)[C@@H](O)[C@H](O)[C@H]4O[C@@H]4O[C@@H](C)[C@H](O)[C@@H](O)[C@H]4O)cc(O)c3c(=O)c2O)ccc1O` [Compound 2, isorhamnetin-7-O-β-D-neohesperidoside], the melting point (in general, the temperature of the solid-liquid transition) amounted to 225 °C. In addition, the IC50 (commonly the point on the concentration scale where inhibition reaches its midpoint) in series [1] was 0.917 µM. At aldose reductase, the IC50 is 8.73 µM.

Turning to `COc1cc(-c2oc3cc(O)cc(O)c3c(=O)c2O[C@@H]2O[C@H](CO)[C@@H](O)[C@H](O)[C@H]2O)ccc1O` [Compound 3, isorhamnetin-3-O-β-D-glucoside], the values for the 50% inhibitory concentration (IC50) (in series [1]; on aldose reductase) were 0.721 µM and 45 µM, respectively.

On to `COc1ccc(-c2oc3cc(O[C@@H]4O[C@@H](C)[C@H](O)[C@@H](O)[C@H]4O)cc(O)c3c(=O)c2O[C@@H]2O[C@@H](C)[C@H](O)[C@@H](O)[C@H]2O)cc1` [Compound 4, kaempferol-4′-methoxy-3,7-O-α-dirhamnoside], for which the “Cytotoxic activity (in words)” value with colon (HCT116) carcinoma, in the series with liver (HepG2) carcinoma and in the series on breast (MCF7) carcinoma was “potent cytotoxic activities” in each case. Moreover, the results for the IC50 (in [1]; in series [5]; at aldose reductase) were 0.474 µM, 258 µM and 51.8 µM, respectively. The “Effect on basal glucose uptake (in words)” value in [4] is recorded as “significant insulin-like effects”. The “DPPH radical scavenging IC50” value in series [2] is 9.44 ± 0.13 mg/L. Besides, the “α-glucosidase inhibition IC50” value in series [6] is 110.09 ± 4.2 mg/L. Further, the FRAP value in [3] is listed as 1812 ± 33.2 µM.

For `COc1cc(-c2oc3cc(O[C@@H]4O[C@@H](C)[C@H](O)[C@@H](O)[C@H]4O)cc(O)c3c(=O)c2O[C@@H]2O[C@@H](C)[C@H](OC(C)=O)[C@@H](O)[C@H]2O)ccc1O` [Compound 5, isorhamnetin-3-O-α-(4″- acetylrhamnoside)-7-O-α-rhamnoside], the melting point stood at 257 °C. In the series with colon (HCT116) carcinoma, the “Cytotoxic activity (in words)” value is “potent cytotoxic activities”. The “Effect on basal glucose uptake (in words)” value in series [4] is “significant insulin-like effects”. Moreover, the “Cytotoxic activity (in words)” value in the series on liver (HepG2) carcinoma is reported as “potent cytotoxic activities”. Besides, the “DPPH radical scavenging IC50” value in series [2] was 11.45 ± 0.48 mg/L. This compound showed a half-maximal inhibitory concentration (IC50) in series [5] of 163 µM. Moreover, at aldose reductase, the “Aldose reductase inhibitory activity (in words)” value is recorded as “least aldose reductase inhibitory activity” and the 50% inhibitory concentration (IC50) was 119 µM. In addition, the “Cytotoxic activity (in words)” value in the series on breast (MCF7) carcinoma is reported as “potent cytotoxic activities”. Also, in series [6], the “α-glucosidase inhibition IC50” value is 86.54 ± 3.8 mg/L. This compound came in with an FRAP value in series [3] of 3610 ± 88.3 µM.

Turning to `O=C1O[C@H]([C@@H](O)CO)C(O)=C1O` [ascorbic acid, reference compound], the “DPPH radical scavenging IC50” value in [2] is 1.37 ± 0.07 mg/L. The FRAP value in [3] came to 685.2 ± 1.07 µM.
